Measured values from PMC6072100, “Exploring the links between peptoid antibacterial activity and toxicity” (MedChemComm, 2017).
Square brackets hold non-standard residues; d marks the D form. Peptide text beside a SMILES is read from it. Gly(Nα-4-Cl-benzyl) = O=C(O)CNCc1ccc(Cl)cc1; N(4-F-Bzl)Gly = O=C(O)CNCc1ccc(F)cc1; Gly(N-(CH2)6NH2) = NCCCCCCNCC(=O)O; Nspe = C[C@H](NCC(=O)O)c1ccccc1; NhArg = N=C(N)NCCCCNCC(=O)O; NPentylGly = CCCCCNCC(=O)O; Nlys = NCCCCNCC(=O)O

Key:
[1] = Skin cell toxicity assay with HaCaT (alamarBlue); format: cell-based, human; conditions: human, HaCaT cells (keratinocytes)
Method: (§1) The activity of our peptoid library was assessed against both bacterial and mammalian cells to gain a broader understanding of the factors that lead to effective and selective antimicrobial peptoids. We screened for broad-spectrum antibacterial activity against Gram-negative (Escherichia coli and Pseudomonas aeruginosa) and Gram-positive (Staphylococcus aureus and S. epidermidis) bacteria. The toxicity of the library was also assessed against two mammalian cell lines; HaCaT spontaneously transformed aneuploid keratinocytes were employed to model toxicity against human skin cells and HepG2, a cell line derived from a human liver carcinoma, were used as a study on polarised human hepatocytes. Detailed methods for these assays can be found in the ESI. ^‡ […]
(§2) Please note – ED50, the median effective dose, was defined as the dose that kills 50% of cells.
Cytotoxicity analyses were performed in 96-well plates (Costar, Fisher Scientific) using alamarBlue® (Invitrogen) for cell viability detection using a modified protocol as described previously. HepG2 or HaCaT cells were subcultured at 37 °C, 5% CO2 in DMEM high glucose supplemented with heat-inactivated foetal bovine sera (FBS, 10%; Biosera Ltd) and penicillin/streptomycin (P/S, 1%). Cells were counted using a Neubauer Improved Haemocytometer. HepG2 cells were seeded 1 day prior to treatment in 96 well plates at a concentration of 2 × 10^5 cells per mL in 100 μL of medium (2 × 10^4 cells per well). Then cells were pre-incubated with the compounds in triplicate in a dilution series in triplicate from 2–100 μM (5 mM stock solutions in DMSO diluted from 100 μM to 3 μM; untreated cells with DMSO as a negative control) in 50 μl of the media for 1 hour. Afterwards, 40 μL were removed from each well before the addition of 90 μL of the media, followed by incubation for 24 hours at 37 °C, 5% CO2. Then, 10 μL of alamarBlue® (Invitrogen) was added to each well before a 2 hour incubation prior to assessing cell viability using a fluorescent plate reader (Biotek; Ex 560 nm/Em 600 nm). All data were measured in triplicate on a minimum of two occasions to ensure a robust data set was collected. The ED50 values were calculated from the dose response results achieved from the serial dilutions. […]
Cells were counted using a Neubauer Improved
Haemocytometer. […]
µM to 3 µM; untreated cells with DMSO as a negative control) in 50 µl of the media for 1 hour.
(§3) Afterwards, 40 µL were removed from each well before the addition of 90 µL of the media, followed by incubation for 24 hours at 37 °C, 5% CO2. Then, 10 µL of alamarBlue® (Invitrogen) was added to each well before a 2 hour incubation prior to assessing cell viability using a fluorescent plate reader (Biotek; Ex 560 nm / Em 600 nm). All data was measured in triplicate on a minimum of two occasions to ensure a robust data set was collected. The ED50 values were calculated from the dose response results achieved from the serial dilutions.
Skin Cell Toxicity assay with HaCaT […]
alamarBlue® (Invitrogen) for cell viability detection. HaCaT cells were subcultured at 37 °C, 5% CO2 in DMEM high glucose supplemented with heat-inactivated foetal bovine sera (FBS, 10%; Biosera Ltd) and penicillin/streptomycin (P/S, 1%). Cells were counted using a Neubauer Improved Haemocytometer. HaCaT cells were seeded in the plates 24 hours prior to treatment in 96 well plates at a concentration of 2x10^5 cells/mL in 100 µL of medium (2x10^4 cells/well).
Empty wells were filled with 100 µL PBS. After 24 hours, cells were incubated with the compounds in a dilution series in triplicate from 2 – 100 µM (5 mM stock solutions in DMSO diluted from 100 µM to 3 µM; Amphotericin B was used as a positive control and untreated cells with DMSO as a negative control) in 50 µL of the media for 1 hour. Afterwards, 40 µl was removed from each well, 90 µL of medium was added to each well and the cells incubated for 24 hours at 37 °C, 5% CO2. 10 µL of alamarBlue® (Invitrogen) was added to each well before […]

[2] = Cytotoxicity assay with HepG2 (alamarBlue); format: cell-based, human; conditions: human, HepG2 cells
Method: as §1, §2
Cytotoxicity analyses were performed in 96-well plates (Costar, Fisher Scientific) using alamarBlue® (Invitrogen) for cell viability detection using a modified protocol as described previously. HepG2 or HaCaT cells were subcultured at 37 °C, 5% CO2 in DMEM high glucose supplemented with heat-inactivated foetal bovine sera (FBS, 10%; Biosera Ltd) and penicillin/streptomycin (P/S, 1%). Cells were counted using a Neubauer Improved Haemocytometer. HepG2 cells were seeded 1 day prior to treatment in 96 well plates at a concentration of 2 × 10^5 cells per mL in 100 μL of medium (2 × 10^4 cells per well). Then cells were pre-incubated with the compounds in triplicate in a dilution series in triplicate from 2–100 μM (5 mM stock solutions in DMSO diluted from 100 μM to 3 μM; untreated cells with DMSO as a negative control) in 50 μl of the media for 1 hour. Afterwards, 40 μL were removed from each well before the addition of 90 μL of the media, followed by incubation for 24 hours at 37 °C, 5% CO2. Then, 10 μL of alamarBlue® (Invitrogen) was added to each well before a 2 hour incubation prior to assessing cell viability using a fluorescent plate reader (Biotek; Ex 560 nm/Em 600 nm). All data were measured in triplicate on a minimum of two occasions to ensure a robust data set was collected. The ED50 values were calculated from the dose response results achieved from the serial dilutions.
Cytotoxicity assay with HepG2
Cytotoxicity analyses were performed in 96-well plates (Costar, Fisher Scientific) using alamarBlue® (Invitrogen) for cell viability detection using a modified protocol as previously described. The HepG2 cells were grown at 37 °C, 5% CO2 in DMEM high glucose supplemented with heat-inactivated foetal bovine sera (FBS, 10%; Biosera Ltd) and penicillin/streptomycin (P/S, 1%). Cells were counted using a Neubauer Improved Haemocytometer. HepG2 cells were seeded 1 day prior to treatment in 96 well plates at a concentration of 2x10^5 cells/mL in 100 µL of medium (2x10^4 cells/well). Then cells were pre-incubated with the compounds in triplicate (5 mM stock solutions in DMSO diluted from 100 µM to 3 µM; untreated cells with DMSO as a negative control) in 50 µl of the media for 1 hour.
as §3, with “dilutions. […]” for “dilutions.”
5% CO2 in DMEM high glucose supplemented with heat-inactivated foetal bovine sera (FBS, 10%; Biosera Ltd) and penicillin/streptomycin (P/S, 1%). Cells were counted using a Neubauer […]
Empty wells were filled with 100 µL PBS. After 24 hours, cells were incubated with the compounds in a dilution series in triplicate from 2 – 100 µM (5 mM stock solutions in DMSO […]

Compound | CC50 at 24 h ([1]; ED50 HaCaT) [µM] | CC50 at 24 h ([2]; ED50 HepG2) [µM] | CC50 at 24 h ([1]; dose that kills 50% of cells, 2–100 μM, 1 h with compound then 24 h, alamarBlue, read-out: ED50 HaCaT) [µM] | CC50 at 24 h ([2]; dose that kills 50% of cells, 2–100 μM, 1 h with compound then 24 h, alamarBlue, read-out: ED50 HepG2) [µM]
C[C@@H](c1ccccc1)N(CC(N)=O)C(=O)CN(C(=O)CN(CCCCN)C(=O)CN(Cc1ccc(F)cc1)C(=O)CN(Cc1ccc(F)cc1)C(=O)CN(CCCCN)C(=O)CN(C(=O)CN(C(=O)CN(CCCCN)C(=O)CN(Cc1ccc(F)cc1)C(=O)CN(Cc1ccc(F)cc1)C(=O)CNCCCCN)[C@@H](C)c1ccccc1)[C@@H](C)c1ccccc1)[C@@H](C)c1ccccc1 [Peptoid 28, [(NLysNpfbNpfb)(NLysNspeNspe)]2] | 100 | 55 | – | –
CCCCCNCC(=O)N(CC(=O)N(CC(=O)N(CCCCN)CC(=O)N(CC(=O)N(CC(=O)N(CCCCN)CC(=O)N(CC(=O)N(CC(=O)N(CCCCN)CC(=O)N(CC(=O)N(CC(N)=O)[C@@H](C)c1ccccc1)[C@@H](C)c1ccccc1)[C@@H](C)c1ccccc1)[C@@H](C)c1ccccc1)[C@@H](C)c1ccccc1)[C@@H](C)c1ccccc1)[C@@H](C)c1ccccc1)[C@@H](C)c1ccccc1 [Peptoid 30, (NamyNspeNspe)[(NLysNspeNspe)]3] | 12 | 15 | – | –
NCCCCNCC(=O)N(CC(=O)N(CC(=O)N(CCCCN)CC(=O)N(CC(=O)N(CC(=O)N(CCCCN)CC(=O)N(CC(=O)N(CC(N)=O)Cc1ccccc1)Cc1ccccc1)Cc1ccccc1)Cc1ccccc1)Cc1ccccc1)Cc1ccccc1 [Peptoid 5, (NLysNpheNphe)3] | 100 | 100 | – | –
NCCCCNCC(=O)N(CC(=O)N(CC(=O)N(CCCCN)CC(=O)N(CC(=O)N(CC(=O)N(CCCCN)CC(=O)N(CC(=O)N(CC(=O)N(CCCCN)CC(=O)N(CC(=O)N(CC(N)=O)Cc1ccc(Cl)cc1)Cc1ccc(Cl)cc1)Cc1ccc(Cl)cc1)Cc1ccc(Cl)cc1)Cc1ccc(Cl)cc1)Cc1ccc(Cl)cc1)Cc1ccc(Cl)cc1)Cc1ccc(Cl)cc1 [Peptoid 20, (NLysNpcbNpcb)4] (H-[Nlys][Gly(Nα-4-Cl-benzyl)][Gly(Nα-4-Cl-benzyl)][Nlys][Gly(Nα-4-Cl-benzyl)][Gly(Nα-4-Cl-benzyl)][Nlys][Gly(Nα-4-Cl-benzyl)][Gly(Nα-4-Cl-benzyl)][Nlys][Gly(Nα-4-Cl-benzyl)][Gly(Nα-4-Cl-benzyl)]-NH2) | 18 | 22 | – | –
C[C@@H](c1ccccc1)N(CC(N)=O)C(=O)CN(C(=O)CN(CCCCCCN)C(=O)CN(C(=O)CN(C(=O)CN(CCCCCCN)C(=O)CN(C(=O)CN(C(=O)CN(CCCCCCN)C(=O)CN(C(=O)CN(C(=O)CNCCCCCCN)[C@@H](C)c1ccccc1)[C@@H](C)c1ccccc1)[C@@H](C)c1ccccc1)[C@@H](C)c1ccccc1)[C@@H](C)c1ccccc1)[C@@H](C)c1ccccc1)[C@@H](C)c1ccccc1 [Peptoid 10, (NahNspeNspe)4] (H-[Gly(N-(CH2)6NH2)][Nspe][Nspe][Gly(N-(CH2)6NH2)][Nspe][Nspe][Gly(N-(CH2)6NH2)][Nspe][Nspe][Gly(N-(CH2)6NH2)][Nspe][Nspe]-NH2; N-terminus assumed) | 23 | 41 | – | –
C[C@@H](c1ccccc1)N(CC(N)=O)C(=O)CN(C(=O)CN(CCN)C(=O)CN(C(=O)CN(C(=O)CNCCN)[C@@H](C)c1ccccc1)[C@@H](C)c1ccccc1)[C@@H](C)c1ccccc1 [Peptoid 18, (NaeNspeNspe)2] | 100 | 100 | – | –
C[C@@H](c1ccccc1)N(CC(N)=O)C(=O)CN(C(=O)CN(CCCCN)C(=O)CN(C(=O)CN(C(=O)CNCCCCN)[C@@H](C)c1ccccc1)[C@@H](C)c1ccccc1)[C@@H](C)c1ccccc1 [Peptoid 15, (NLysNspeNspe)2] (H-[Nlys][Nspe][Nspe][Nlys][Nspe][Nspe]-NH2) | 100 | 100 | – | –
C[C@@H](c1ccccc1)N(CC(N)=O)C(=O)CN(C(=O)CN(CCCCN)C(=O)CN(Cc1ccc(F)cc1)C(=O)CN(Cc1ccc(F)cc1)C(=O)CN(CCCCN)C(=O)CN(C(=O)CN(C(=O)CNCCCCN)[C@@H](C)c1ccccc1)[C@@H](C)c1ccccc1)[C@@H](C)c1ccccc1 [Peptoid 29, (NLysNspeNspe)(NLysNpfbNpfb)(NLysNspeNspe)] | – | – | 65 | 43
NCCCCNCC(=O)N(CC(=O)N(CC(=O)N(CCCCN)CC(=O)N(CC(=O)N(CC(=O)N(CCCCN)CC(=O)N(CC(=O)N(CC(N)=O)Cc1ccc(F)cc1)Cc1ccc(F)cc1)Cc1ccc(F)cc1)Cc1ccc(F)cc1)Cc1ccc(F)cc1)Cc1ccc(F)cc1 [Peptoid 23, (NLysNpfbNpfb)3] (H-[Nlys][N(4-F-Bzl)Gly][N(4-F-Bzl)Gly][Nlys][N(4-F-Bzl)Gly][N(4-F-Bzl)Gly][Nlys][N(4-F-Bzl)Gly][N(4-F-Bzl)Gly]-NH2) | 100 | 45 | – | –
CCCCCNCC(=O)N(CC(=O)N(CC(=O)N(CCCCNC(=N)N)CC(=O)N(CC(=O)N(CC(=O)N(CCCCC)CC(=O)N(CC(=O)N(CC(=O)N(CCCCNC(=N)N)CC(=O)N(CC(=O)N(CC(N)=O)[C@@H](C)c1ccccc1)[C@@H](C)c1ccccc1)[C@@H](C)c1ccccc1)[C@@H](C)c1ccccc1)[C@@H](C)c1ccccc1)[C@@H](C)c1ccccc1)[C@@H](C)c1ccccc1)[C@@H](C)c1ccccc1 [Peptoid 40, [(NamyNspeNspe)(NhArgNspeNspe)]2] (H-[NPentylGly][Nspe][Nspe][NhArg][Nspe][Nspe][NPentylGly][Nspe][Nspe][NhArg][Nspe][Nspe]-NH2) | 31 | 24 | – | –
